Laboratory results as given in patent US20220305019A1, “PARAXANTHINE-BASED COMPOSITIONS FOR PROMOTING WEIGHT LOSS” (Ingenious Ingredients, LP, priority 2021, published 2022).

Columns and labels:
Type in all cases: in vivo, human
[1] = Respiratory quotient (RQ=VCO2/VO2) after oral ingestion, crossover, two participants; conditions: 100 mg PX
Protocol: (§1) Upon determination of baseline respiratory quotient (RQ=VCO2/VO2) two participants were assigned in a randomized, double-blind, placebo-controlled, crossover fashion to ingest a non-energetic placebo (maltodextrin) or a 100 mg paraxanthine (PX). All supplements were orally ingested with 8 fluid ounces of cold tap water. The order of administration for all interventions was randomized using a random allocation software to ensure randomization and to avoid order effects. After ingestion, participants completed all assessments in an identical fashion 30, 60, 90, 120, and 180 minutes after ingestion of their assigned supplement. All study visits took place between 0600-1000 hours. At least 72 hours of rest took place between each condition.
The lower the RQ, the more fat that is being oxidized for body energy needs. The closer to 1.0 the more carbohydrate is being burned for energy needs. If numbers are lower, more fat is being oxidized. PX reduced the respiratory quotient by more than 10% compared to placebo, increasing fat oxidation (“fat burning”).

[2] = Confidence visual analog scale (VAS) after oral ingestion, crossover, two participants; parameters: Confidence (Visual Analog Scale) / Confidence VAS MEAN: scale not given here; conditions: 100 mg PX
Protocol: as §1, with “All” for “Upon determination of baseline respiratory quotient (RQ=VCO2/VO2) two participants were assigned in a randomized, double-blind, placebo-controlled, crossover fashion to ingest a non-energetic placebo (maltodextrin) or a 100 mg paraxanthine (PX). All”

[3] = Self-reported swagger after consuming paraxanthine (individual reports); conditions: person
[4] = Swagger visual analog scale (VAS) after oral ingestion, crossover, two participants; parameters: Swagger (Visual Analog Scale) / Swagger VAS MEAN: scale not given here; conditions: 100 mg PX
Protocol: as §1, with “All” for “Upon determination of baseline respiratory quotient (RQ=VCO2/VO2) two participants were assigned in a randomized, double-blind, placebo-controlled, crossover fashion to ingest a non-energetic placebo (maltodextrin) or a 100 mg paraxanthine (PX). All”

[5] = Appetite visual analog scale (VAS) after oral ingestion, crossover, two participants; parameters: Appetite Visual Analog Scale / Appetite Visual Analog Scale MEAN: scale not given here; conditions: for Appetite Visual Analog Scale MEAN: mean 30-180 min
Protocol: All supplements were orally ingested with 8 fluid ounces of cold tap water. The order of administration for all interventions was randomized using a random allocation software to ensure randomization and to avoid order effects. […] All study visits took place between 0600-1000 hours. At least 72 hours of rest will take place between each condition.

Cn1c(=O)[nH]c2ncn(C)c2c1=O [PX, paraxanthine]
reduction of respiratory quotient compared to placebo [1]: more than 10% | Respiratory Quotient ([1]; 30 min, person one): 0.68 | Respiratory Quotient ([1]; 30 min, person two): 0.81 | Respiratory Quotient ([1]; 60 min, person one): 0.66 | Respiratory Quotient ([1]; 60 min, person two): 0.74 | Respiratory Quotient ([1]; 90 min, person one): 0.72 | Respiratory Quotient ([1]; 90 min, person two): 0.74 | Respiratory Quotient ([1]; 120 min, person one): 0.70 | Respiratory Quotient ([1]; 120 min, person two): 0.69 | Respiratory Quotient ([1]; 180 min, person one): 0.77 | Respiratory Quotient ([1]; 180 min, person two): 0.70 | Respiratory Quotient MEAN ([1]; Average of both): 0.725 | Respiratory Quotient MEAN ([1]; person one): 0.71 | Respiratory Quotient MEAN Δ from 0 ([1]; person one): −0.014 | Respiratory Quotient MEAN ([1]; person two): 0.74 | Respiratory Quotient MEAN Δ from 0 ([1]; person two): −0.004 | Respiratory Quotient ([1]; time 0 (baseline), person one): 0.72 | Respiratory Quotient ([1]; time 0 (baseline), person two): 0.74 | effect on confidence [2]: failed to increase confidence | Confidence (Visual Analog Scale) ([2]; 30 min, person one): 70 | Confidence (Visual Analog Scale) ([2]; 30 min, person two): 70 | Confidence (Visual Analog Scale) ([2]; 60 min, person one): 80 | Confidence (Visual Analog Scale) ([2]; 60 min, person two): 70 | Confidence (Visual Analog Scale) ([2]; 90 min, person one): 89 | Confidence (Visual Analog Scale) ([2]; 90 min, person two): 65 | Confidence (Visual Analog Scale) ([2]; 120 min, person one): 81 | Confidence (Visual Analog Scale) ([2]; 120 min, person two): 75 | Confidence (Visual Analog Scale) ([2]; 180 min, person one): 90 | Confidence (Visual Analog Scale) ([2]; 180 min, person two): 70 | Confidence VAS MEAN ([2]; Average of both): 76.0 | Confidence VAS MEAN ([2]; person one): 82.0 | Confidence VAS mean Δ vs. PLA ([2]; person one): +0.6 | Confidence VAS MEAN ([2]; person two): 70.0 | Confidence VAS mean Δ vs. PLA ([2]; person two): −1.0 | self-reported swagger ([3]; 50 mg daily during two weeks): increase in swagger | self-reported swagger ([3]; 100 mg, workplace and team sports): significant increases in swagger | self-reported swagger ([3]; 200 mg): an increase in swagger | self-reported swagger ([3]; 400 mg): a significant boost in swagger | increase of swagger over 200 mg caffeine ingestion [4]: 26% | increase of swagger over placebo [4]: 21% | Swagger (Visual Analog Scale) ([4]; 30 min, person one): 91 | Swagger (Visual Analog Scale) ([4]; 30 min, person two): 71 | Swagger (Visual Analog Scale) ([4]; 60 min, person one): 80 | Swagger (Visual Analog Scale) ([4]; 60 min, person two): 71 | Swagger (Visual Analog Scale) ([4]; 90 min, person one): 89 | Swagger (Visual Analog Scale) ([4]; 90 min, person two): 80 | Swagger (Visual Analog Scale) ([4]; 120 min, person one): 81 | Swagger (Visual Analog Scale) ([4]; 120 min, person two): 75 | Swagger (Visual Analog Scale) ([4]; 180 min, person one): 90 | Swagger (Visual Analog Scale) ([4]; 180 min, person two): 70 | Swagger VAS MEAN ([4]; Average of both): 79.8 | Swagger VAS MEAN ([4]; person one): 86.2 | Swagger VAS mean Δ vs. PLA ([4]; person one): +7.6 | Swagger VAS MEAN ([4]; person two): 73.4 | Swagger VAS mean Δ vs. PLA ([4]; person two): +20.0 | reduction of mean appetite compared to placebo ([5]; 100 mg PX): 38.5% | appetite reduction compared to CA ([5]; 100 mg PX and 300 mg PX vs 200 mg CA): greater reduction in appetite compared to CA | Appetite Visual Analog Scale ([5]; 100 mg PX, 30 min, person one): 29 | Appetite Visual Analog Scale ([5]; 100 mg PX, 30 min, person two): 70 | Appetite Visual Analog Scale ([5]; 100 mg PX, 60 min, person one): 27 | Appetite Visual Analog Scale ([5]; 100 mg PX, 60 min, person two): 65 | Appetite Visual Analog Scale ([5]; 100 mg PX, 90 min, person one): 25 | Appetite Visual Analog Scale ([5]; 100 mg PX, 90 min, person two): 60 | Appetite Visual Analog Scale ([5]; 100 mg PX, 120 min, person one): 29 | Appetite Visual Analog Scale ([5]; 100 mg PX, 120 min, person two): 85 | Appetite Visual Analog Scale ([5]; 100 mg PX, 180 min, person one): 35 | Appetite Visual Analog Scale ([5]; 100 mg PX, 180 min, person two): 90 | Appetite Visual Analog Scale MEAN ([5]; 100 mg PX, Average of both): 51.5 | Appetite Visual Analog Scale MEAN ([5]; 100 mg PX, person one): 29.0 | Appetite Visual Analog Scale MEAN ([5]; 100 mg PX, person two): 74.0 | Appetite VAS mean Δ vs. PLA ([5]; 100 mg PX, person one): −65.2 | Appetite VAS mean Δ vs. PLA ([5]; 100 mg PX, person two): +0.8 | reduction of mean appetite compared to placebo ([5]; 300 mg PX): 43.1% | Appetite Visual Analog Scale ([5]; 300 mg PX, 30 min, person one): 24 | Appetite Visual Analog Scale ([5]; 300 mg PX, 30 min, person two): 65 | Appetite Visual Analog Scale ([5]; 300 mg PX, 60 min, person one): 30 | Appetite Visual Analog Scale ([5]; 300 mg PX, 60 min, person two): 60 | Appetite Visual Analog Scale ([5]; 300 mg PX, 90 min, person one): 29 | Appetite Visual Analog Scale ([5]; 300 mg PX, 90 min, person two): 55 | Appetite Visual Analog Scale ([5]; 300 mg PX, 120 min, person one): 27 | Appetite Visual Analog Scale ([5]; 300 mg PX, 120 min, person two): 60 | Appetite Visual Analog Scale ([5]; 300 mg PX, 180 min, person one): 26 | Appetite Visual Analog Scale ([5]; 300 mg PX, 180 min, person two): 80 | Appetite Visual Analog Scale MEAN ([5]; 300 mg PX, Average of both): 45.6 | Appetite Visual Analog Scale MEAN ([5]; 300 mg PX, person one): 27.2 | Appetite Visual Analog Scale MEAN ([5]; 300 mg PX, person two): 64.0 | Appetite VAS mean Δ vs. 100 mg PX ([5]; 300 mg PX, person one): −1.8 | Appetite VAS mean Δ vs. PLA ([5]; 300 mg PX, person one): −67.0 | Appetite VAS mean Δ vs. 100 mg PX ([5]; 300 mg PX, person two): −10.0 | Appetite VAS mean Δ vs. PLA ([5]; 300 mg PX, person two): −9.2
